Laboratory results published in ChEMBL document CHEMBL1126413, “Cumindysoside A, a novel cytotoxic trisnortriterpene glucoside with a 14, 18-cycloapoeuphane-type skeleton from Dysoxylum cumingianum” (1992).
In brackets after ≈: the same amount, converted by molar mass. Activity calls are given as the source filed them. No cut-off for these calls is given here.

Columns and labels:
[1] = test system: A549; experiment: Dose required for in vitro cytotoxic activity against A-549 lung carcinoma cells at concentration of 10 ug/ml; NA is no cytotoxicity; assay type: functional, cell-based; settings: Homo sapiens
[2] = test system: HCT-8; experiment: Dose required for in vitro cytotoxic activity against HCT-8 colon carcinoma cells at concentration of 10 ug/ml; NA is no cytotoxicity; assay type: functional, cell-based; settings: Homo sapiens
[3] = Effective dose required for in vitro cytotoxic activity against TE-671 medulloblastoma tumor cells; assay type: functional; settings: Homo sapiens, read-out: ED50 (the source's name)
[4] = Effective dose required for in vitro cytotoxic activity against RPMI-7951 melanoma tumor cells; assay type: functional; settings: Homo sapiens, read-out: ED50 (the source's name)

Question: With `C=C(C=O)[C@H](C)[C@@H]1CCC23CC12CC[C@@H]1[C@@]2(C)CC[C@@H](OC(C)=O)C(C)(C)[C@@H]2C[C@@H](O[C@@H]2O[C@H](COC(C)=O)[C@@H](O)[C@H](O)[C@H]2O)[C@]13C` (some centres undefined) as the compound, how does the Activity [1] read?
Answer: inactive

Question: And the Activity [2]?
Answer: inactive

Question: What about the EC50 [3] of the same compound?
Answer: 2.74 µg/mL (≈ 4.15 µM)

Question: And the EC50 [4]?
Answer: 0.34 µg/mL (≈ 0.514 µM)
